ChEMBL document CHEMBL1140624, “Improved biochemical strategies for targeted delivery of taxoids” (Bioorg Med Chem, 2007)
In brackets after ≈: the same amount, converted by molar mass. Each block holds one compound with its values, some of them ahead of it. Activity calls are given as the source filed them. The rule behind the calls is not given here.

How the values were obtained:
Mus musculus [1] = organism: Mus musculus; assay: Toxicity assessed as reduction of body weight in mouse; assay type: organism-based; conditions: in vivo
[2] = Half life in presence of 50 ug/mL beta-glucuronidase assessed as taxol release; assay type: ADME
LoVo [3] = assay: Cytotoxicity against human LoVo cells in presence of beta-glucuronidase; assay type: functional, cell-based
[4] = Half life in presence of 30 ug/mL beta-glucuronidase assessed as taxol release at 30 ug/mL; assay type: ADME
LoVo [5] = assay: Ratio of IC50 of drug for human LoVo cells to IC50 of taxol for human LoVo cells; assay type: functional
[6] = Half life in DTT buffer assessed as taxol release; assay type: ADME
Mus musculus [7] = assay: Reduction of body weight in human L2987 xenografted athymic mouse at 125 mg/kg; assay type: functional; set-up: scale not given: the % may be the effect or the level left
MCF7 [8] = assay: Cytotoxicity against human MCF7 cells; assay type: functional, cell-based
[9] = Half life in PBS buffer assessed as taxol circulation time at pH 7; assay type: ADME
[10] = Aqueous solubility of the compound; assay type: physicochemical; conditions: aqueous solution
EVSA-T = assay: Cytotoxicity against human EVSA-T cells; assay type: functional, cell-based
L2987 [11] = assay: Cytotoxicity against human L2987 cells in presence of DTT; assay type: functional, cell-based
L2987 [12] = assay: Cytotoxicity against human L2987 cells; assay type: functional, cell-based
OVCAR-3 [13] = assay: Cytotoxicity against human OVCAR-3 cells; assay type: functional, cell-based
OVCAR-3 [14] = assay: Cytotoxicity against human OVCAR-3 cells in presence of beta-glucuronidase; assay type: functional, cell-based
[15] = Half life in presence of 10 uM beta-glucuronidase assessed as taxol release at 100 uM; assay type: ADME
LoVo [16] = assay: Ratio of IC50 of drug for human LoVo cells to IC50 of taxotere for human LoVo cells; assay type: functional
A2780 = assay: Cytotoxicity against ERbeta negative human A2780 cells; assay type: functional, cell-based
MDA-MB-231 = assay: Cytotoxicity against ERalpha negative human MDA-MB-231 cells; assay type: functional, cell-based
MCF-7 (Homo sapiens) = assay: Ratio of IC50 for ERalpha positive human MCF-7 cells to IC50 for ERalpha negative human MDA-MB-231 cells
MCF7 [17] = assay: Cytotoxicity against ERalpha positive human MCF7 cells; assay type: functional, cell-based; conditions: for EC50: read-out: ED50 (the source's name)
PC-3 = assay: Cytotoxicity against ERbeta positive human PC3 cells; assay type: functional, cell-based
[18] = test system: M19 melanoma cell line (human); assay: Cytotoxicity against human M19 melanoma cells
HT-29 = assay: Cytotoxicity against human HT29 cells; assay type: functional, cell-based
[19] = Cytotoxicity against human IGROV cells; assay type: functional, cell-based
Mus musculus [20] = organism: Mus musculus; assay: Survival of p388 tumor bearing mouse after 30 days; assay type: functional, organism-based
[21] = Half life at pH 7; assay type: ADME; conditions: buffer
[22] = Half life at pH 5; assay type: ADME; conditions: buffer

Compound: CC(=O)O[C@H]1C(=O)[C@@]2(C)[C@H]([C@H](OC(=O)c3ccccc3)[C@]3(O)C[C@H](OC(=O)[C@H](OC(=O)CN(C)CC(=O)NCCOCCOCCOCCNC(=O)CCC(NC(=O)c4ccc(NCc5cnc6nc(N)[nH]c(=O)c6n5)cc4)C(=O)O)[C@@H](NC(=O)c4ccccc4)c4ccccc4)C(C)=C1C3(C)C)[C@]1(OC(C)=O)CO[C@@H]1C[C@@H]2O (some centres not stated)
- Activity (Mus musculus [1]): Non-toxic

Compound: CC(=O)O[C@H]1C(=O)[C@@]2(C)[C@H]([C@H](OC(=O)c3ccccc3)[C@]3(O)C[C@H](OC(=O)C(OC(=O)N(C)CCN(C)C(=O)OCc4ccc(O[C@@H]5O[C@H](C(=O)O)[C@@H](O)[C@H](O)[C@H]5O)c(N)c4)[C@@H](NC(=O)c4ccccc4)c4ccccc4)C(C)=C1C3(C)C)[C@]1(OC(C)=O)CO[C@@H]1C[C@@H]2O (some centres not stated)
- Activity (LoVo [3]): inactive
- t1/2 [4]: 10 min
- Ratio IC50 (LoVo [5]): 153

Compound: CC(=O)O[C@H]1C(=O)[C@@]2(C)[C@H]([C@H](OC(=O)c3ccccc3)[C@]3(O)C[C@H](OC(=O)[C@H](OC(=O)CCc4ccc(NC(=O)O[C@@H]5O[C@H](C(=O)[O-])[C@@H](O)[C@H](O)[C@H]5O)cc4)[C@@H](NC(=O)c4ccccc4)c4ccccc4)C(C)=C1C3(C)C)[C@]1(OC(C)=O)CO[C@@H]1C[C@@H]2O.[Na+]
- IC50 (OVCAR-3 [13]): 27 nM
- IC50 (OVCAR-3 [14]): 1.1 nM
- t1/2 [15]: 45 min

Compound: CC(=O)O[C@H]1C(=O)[C@@]2(C)[C@H]([C@H](OC(=O)c3ccccc3)[C@]3(O)C[C@H](OC(=O)[C@H](OC(=O)N(C)CCN(C)C(=O)OCc4ccc(O[C@@H]5O[C@H](C(=O)O)[C@@H](O)[C@H](O)[C@H]5O)c([N+](=O)[O-])c4)[C@@H](NC(=O)OC(C)(C)C)c4ccccc4)C(C)=C1C3(C)C)[C@]1(OC(C)=O)CO[C@@H]1C[C@@H]2O
- Activity (LoVo [3]): inactive
- t1/2 [4]: 10 min
- Ratio IC50 (LoVo [16]): 337

Compound: CC(=O)O[C@H]1C(=O)[C@@]2(C)[C@H]([C@H](OC(=O)c3ccccc3)[C@]3(O)C[C@H](OC(=O)[C@@H](OC(=O)CCC(=O)O[C@@H]4C[C@]5(C)[C@@H](O)CC[C@H]5[C@@H]5CCc6cc(O)ccc6[C@H]54)[C@@H](NC(=O)c4ccccc4)c4ccccc4)C(C)=C1C3(C)C)[C@]1(OC(C)=O)CO[C@@H]1C[C@@H]2O
- IC50 (A2780): 1900 nM
- IC50 (MDA-MB-231): 304 nM
- Ratio IC50 (MCF-7 (Homo sapiens)): 3
- IC50 (MCF7 [17]): 103 nM
- IC50 (PC-3): 68 nM

Compound: CC(=O)O[C@H]1C(=O)[C@@]2(C)[C@H]([C@H](OC(=O)c3ccccc3)[C@]3(O)C[C@H](OC(=O)[C@H](O)[C@@H](NC(=O)c4ccccc4)c4ccccc4)C(C)=C1C3(C)C)[C@]1(OC(C)=O)CO[C@@H]1C[C@@H]2O [PACLITAXEL]
- IC50 (LoVo [3]): 90 nM
- IC50 (A2780): 25 nM
- IC50 (OVCAR-3 [13]): 0.2 nM
- IC50 (MDA-MB-231): 4.5 nM
- IC50 [18]: < 3 ng/mL
- IC50 (HT-29): 30 ng/mL (≈ 0.0351 µM)
- EC50 (MCF7 [17]): 50 ng/mL (≈ 0.0586 µM)
- Activity (OVCAR-3 [14]): inactive
- IC50 (PC-3): 77 nM
- IC50 [19]: 10 ng/mL (≈ 0.0117 µM)
- Activity (Mus musculus [20]): Toxic
- solubility [10]: 10 µg/mL (≈ 11.7 µM)

Compound: CC(=O)O[C@H]1C(=O)[C@@]2(C)[C@H]([C@H](OC(=O)c3ccccc3)[C@]3(O)C[C@H](OC(=O)[C@H](OC(=O)CC(C)(C)CNC(=O)O[C@@H]4O[C@H](C(=O)[O-])[C@@H](O)[C@H](O)[C@H]4O)[C@@H](NC(=O)c4ccccc4)c4ccccc4)C(C)=C1C3(C)C)[C@]1(OC(C)=O)CO[C@@H]1C[C@@H]2O.[Na+]
- IC50 (OVCAR-3 [13]): 20 nM
- IC50 (OVCAR-3 [14]): 0.6 nM
- t1/2 [15]: 120 min

Compound: CC(=O)O[C@H]1C(=O)[C@@]2(C)[C@H]([C@H](OC(=O)c3ccccc3)[C@]3(O)C[C@H](OC(=O)[C@H](OC(=O)COCC(=O)NCCOCCOCCOCCNC(=O)CCC(NC(=O)c4ccc(NCc5cnc6nc(N)[nH]c(=O)c6n5)cc4)C(=O)O)[C@@H](NC(=O)c4ccccc4)c4ccccc4)C(C)=C1C3(C)C)[C@]1(OC(C)=O)CO[C@@H]1C[C@@H]2O (some centres not stated)
- half-life [21]: 40 h
- EC50 (HT-29; read-out: ED50 (the source's name)): 2.9 ng/mL (≈ 0.00185 µM)
- EC50 (MCF7 [17]): 3.3 ng/mL (≈ 0.00211 µM)
- half-life [22]: > 12.5 days

Second part, led by results:

- t1/2 [2]: 13 min
Compound: CC(=O)O[C@H]1C(=O)[C@@]2(C)[C@H]([C@H](OC(=O)c3ccccc3)[C@]3(O)C[C@H](OC(=O)[C@H](OC(=O)N(C)CCN(C)C(=O)OCc4ccc(O)c(N)c4)[C@@H](NC(=O)c4ccccc4)c4ccccc4)C(C)=C1C3(C)C)[C@]1(OC(C)=O)CO[C@@H]1C[C@@H]2O

- t1/2 [6]: 25 min
Compound: CC(=O)O[C@H]1C(=O)[C@@]2(C)[C@H]([C@H](OC(=O)c3ccccc3)[C@]3(O)C[C@H](OC(=O)[C@H](OC(=O)C(C)(C)CCSSC[C@H](C)C(=O)N4CCC[C@@H]4C(=O)O)[C@@H](NC(=O)c4ccccc4)c4ccccc4)C(C)=C1C3(C)C)[C@]1(OC(C)=O)CO[C@@H]1C[C@@H]2O
- Activity (Mus musculus [7]): 10%

- t1/2 [9]: > 1440 min
- solubility [10]: 200 µg/mL (≈ 206 µM)
Compound: CC(=O)O[C@H]1C(=O)[C@@]2(C)[C@H]([C@H](OC(=O)c3ccccc3)[C@]3(O)C[C@H](OC(=O)[C@H](OC(=O)C[C@H](O)C(=O)O)[C@@H](NC(=O)c4ccccc4)c4ccccc4)C(C)=C1C3(C)C)[C@]1(OC(C)=O)CO[C@@H]1C[C@@H]2O
- IC50 (MCF7 [8]): < 3 ng/mL
- IC50 (EVSA-T): < 3 ng/mL

- t1/2 [6]: 12 min
Compound: CC(=O)O[C@H]1C(=O)[C@@]2(C)[C@H]([C@H](OC(=O)c3ccccc3)[C@]3(O)C[C@H](OC(=O)[C@H](OC(=O)C(C)(C)CCSS[C@@H]4C[C@H](CO)[C@@H](O)[C@H](O)[C@H]4O)[C@@H](NC(=O)c4ccccc4)c4ccccc4)C(C)=C1C3(C)C)[C@]1(OC(C)=O)CO[C@@H]1C[C@@H]2O
- IC50 (L2987 [11]): 200 nM
- IC50 (L2987 [12]): 5700 nM

- t1/2 [4]: 10 min
Compound: CC(=O)O[C@H]1C(=O)[C@@]2(C)[C@H]([C@H](OC(=O)c3ccccc3)[C@]3(O)C[C@H](OC(=O)[C@H](OC(=O)N(C)CCN(C)C(=O)OCc4ccc(O[C@@H]5O[C@H](C(=O)O)[C@@H](O)[C@H](O)[C@H]5O)c(N)c4)[C@@H](NC(=O)OC(C)(C)C)c4ccccc4)C(C)=C1C3(C)C)[C@]1(OC(C)=O)CO[C@@H]1C[C@@H]2O
- Activity (LoVo [3]): inactive
- Ratio IC50 (LoVo [5]): 187
